Data from PubChem BioAssay (NCI).
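Method: 48-hour compound exposure of cells in 96-well plates, five concentrations, linear interpolation of endpoints. GI50 is the concentration that inhibits growth by half. TGI is the concentration that stops growth completely.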

How the values were obtained:
Experiment in all cases: NCI-60 cell line screen, 48 h
DU-145 prostate = tested on: DU-145 prostate
LOX IMVI melanoma = tested on: LOX IMVI melanoma
M14 melanoma = tested on: M14 melanoma
OVCAR-5 ovarian = tested on: OVCAR-5 ovarian
RXF 393 renal = tested on: RXF 393 renal
SNB-75 CNS = tested on: SNB-75 CNS
SW-620 colon = tested on: SW-620 colon
UACC-257 melanoma = tested on: UACC-257 melanoma
UACC-62 melanoma = tested on: UACC-62 melanoma
K-562 leukemia = tested on: K-562 leukemia

SMILES | GI50 (DU-145 prostate) | TGI (DU-145 prostate) | GI50 (LOX IMVI melanoma) | TGI (LOX IMVI melanoma) | GI50 (M14 melanoma) | TGI (M14 melanoma) | GI50 (OVCAR-5 ovarian) | TGI (OVCAR-5 ovarian) | GI50 (RXF 393 renal) | TGI (RXF 393 renal) | GI50 (SNB-75 CNS) | TGI (SNB-75 CNS) | GI50 (SW-620 colon) | TGI (SW-620 colon) | GI50 (UACC-257 melanoma) | TGI (UACC-257 melanoma) | GI50 (UACC-62 melanoma) | TGI (UACC-62 melanoma) | TGI (K-562 leukemia) | GI50 (K-562 leukemia)
O=Nc1ccc2ccccc2c1O | 10.4 µM | 22.7 µM | 1.68 µM | 5.71 µM | 5.07 µM | 16.5 µM | 14.1 µM | 30.4 µM | 14 µM | 27.3 µM | 2.61 µM | 15.7 µM | 2.88 µM | 10.5 µM | 2.13 µM | 4.19 µM | 2.23 µM | 5.89 µM | – | –
O=C1C(=O)N(c2ccc(Cl)cc2Cl)C(=O)C(=O)C1c1nc2ccccc2o1 | – | – | – | – | – | > 100 µM | – | > 100 µM | – | – | – | > 100 µM | – | > 100 µM | – | > 100 µM | – | > 100 µM | > 100 µM | –
COc1ccc(/C=C\c2cc(OC)c(OC)c(OC)c2)cc1OC(=O)CCC(=O)O | – | – | – | > 100 µM | – | – | – | – | – | – | – | > 100 µM | – | > 100 µM | < 0.0001 µM | – | – | – | – | –
CC(=O)CCCCO | – | – | – | > 100 µM | – | > 100 µM | – | > 100 µM | – | > 100 µM | – | > 100 µM | – | > 100 µM | – | > 100 µM | – | > 100 µM | > 100 µM | –
COc1cccc(Cc2c3cc(OC)ccc3cc[n+]2C)c1 | – | – | – | – | – | > 100 µM | – | > 100 µM | – | – | – | > 100 µM | – | > 100 µM | – | 51.6 µM | – | – | > 100 µM | –
CC(=O)OC1CC2(O)C3CCC4CC(O)CCC4(C)C3CCC2(C)C1C1=CC(=O)OC1 (configuration not stated) | – | 0.11 µM | – | 0.209 µM | – | 0.367 µM | – | 0.451 µM | – | – | – | 0.618 µM | – | 1.41 µM | – | 0.773 µM | – | 0.475 µM | 1.87 µM | –
COc1ccccc1NC(=O)C1=C(C)NC(C)=C(C(=O)Nc2ccccc2OC)C1c1ccc(C)cc1 | – | – | – | > 100 µM | – | > 100 µM | – | > 100 µM | – | > 100 µM | – | > 100 µM | – | > 100 µM | – | > 100 µM | – | > 100 µM | > 100 µM | –
CCOC(=O)C1SC(=Nc2ccc(Cl)c(Cl)c2)N=C1C (configuration not stated) | – | – | – | 63.9 µM | – | > 100 µM | – | > 100 µM | – | 52.3 µM | – | 58.9 µM | – | > 100 µM | – | > 100 µM | – | > 100 µM | 32.5 µM | –
CCSC1=C(C)N(C=NC(C)(C)C)CC1 | – | – | – | > 100 µM | – | > 100 µM | – | > 100 µM | – | > 100 µM | – | > 100 µM | – | 73.8 µM | – | > 100 µM | – | > 100 µM | > 100 µM | –
Cc1ccc(-c2cc(C3=CC(=O)C=CC3=O)n(-c3ccc(S(N)(=O)=O)cc3)n2)cc1 | – | – | 31.2 µM | > 100 µM | 31.8 µM | 80.9 µM | 35.9 µM | > 100 µM | > 100 µM | > 100 µM | – | – | 44.5 µM | > 100 µM | > 100 µM | > 100 µM | 39.5 µM | > 100 µM | > 100 µM | 34.4 µM
CN(C)C(=O)c1cc2cnc(Nc3ccc(-c4csc5c(=O)cc(N6CCOCC6)oc45)cc3)nc2n1C1CCCC1 | 0.265 µM | 1.32 µM | 0.112 µM | 0.353 µM | 0.184 µM | 0.601 µM | – | – | 0.163 µM | 0.388 µM | 0.085 µM | 0.373 µM | 0.153 µM | 1 µM | 0.269 µM | 0.909 µM | 0.129 µM | 0.367 µM | > 100 µM | 0.285 µM
COc1ccc2nc3cc(Cl)ccc3c(NCCCNCCC(C)O)c2c1 (configuration not stated) | 0.302 µM | 1.24 µM | 0.356 µM | 1.46 µM | 0.59 µM | 2.02 µM | 0.331 µM | 2.46 µM | 0.414 µM | 1.74 µM | 0.568 µM | 1.93 µM | 0.234 µM | 2.25 µM | 1.63 µM | 3.43 µM | – | – | – | –
NC(N)=NNC(=O)CCCCCCCC(=O)NN=C(N)N | – | – | – | > 100 µM | – | > 100 µM | – | > 100 µM | – | > 100 µM | – | – | – | 27.4 µM | – | > 100 µM | – | > 100 µM | > 100 µM | –
O=C(CC(=O)N1N=C(N2c3ccccc3Sc3ccccc32)CC1c1ccccc1)Nc1ccc(Cl)cc1 (configuration not stated) | – | – | – | > 100 µM | – | > 100 µM | – | > 100 µM | – | > 100 µM | – | > 100 µM | – | > 100 µM | – | > 100 µM | – | > 100 µM | – | –
c1ccc(-c2nc(-c3ccccc3)c(-c3ccccc3)[nH]2)cc1 | – | > 100 µM | – | > 100 µM | – | > 100 µM | – | > 100 µM | – | > 100 µM | – | > 100 µM | – | > 100 µM | – | > 100 µM | – | > 100 µM | – | –
Nc1c(C(=O)Nc2ccccc2)[n+]([O-])c2ccccc2[n+]1[O-] | – | – | – | 28.6 µM | – | 32.8 µM | – | 37.5 µM | – | – | – | 34 µM | – | 38.3 µM | – | 59.4 µM | – | 22.6 µM | > 100 µM | –
CCN(CCCl)CCCNc1c2ccccc2nc2ccc(OC)cc12 | – | – | – | 0.669 µM | 213 µM | – | 286 µM | – | 601 µM | – | 532 µM | – | – | 1.39 µM | 457 µM | – | 255 µM | – | – | 116 µM
CC(C)(C)C(=O)ON1N=NC2C3CC(OCc4ccccc4)(OCc4ccccc4)C(O3)C21 (configuration not stated) | – | – | – | 32.8 µM | – | 85.7 µM | – | > 100 µM | – | 36.5 µM | – | 69.5 µM | – | 50.7 µM | – | 29.2 µM | – | 44.9 µM | 37 µM | –
O=C1c2c(n(Cc3ccccc3)c(=O)n2Cc2ccccc2)C(=O)N1Cc1ccccc1 | – | – | – | > 100 µM | – | > 100 µM | – | > 100 µM | – | > 100 µM | – | > 100 µM | – | > 100 µM | – | > 100 µM | – | > 100 µM | > 100 µM | –
Cc1cc(NS(=O)(=O)c2ccc(NC(=O)c3cccc4c(Nc5ccc(S(=O)(=O)N=C(N)N)cc5)c5ccccc5nc34)cc2)no1 | – | – | – | > 100 µM | – | > 100 µM | – | > 100 µM | – | > 100 µM | – | > 100 µM | – | > 100 µM | – | > 100 µM | – | > 100 µM | > 100 µM | –
CCOC(=O)/C=C/C(C(=O)/C=C/c1ccc(O)c(OC)c1)=C(O)\C=C\c1ccc(O)c(OC)c1 | 4.43 µM | 18.7 µM | 0.903 µM | 3.12 µM | 2.2 µM | 5.15 µM | 3.17 µM | 7.56 µM | – | – | 11.2 µM | 28.7 µM | 3.6 µM | 24.7 µM | 2.06 µM | 4.9 µM | 1.85 µM | 3.76 µM | > 100 µM | 5.66 µM
